Article PMC6508865, “Dynamics of thymol dietary supplementation in quail (Coturnix japonica): Linking bioavailability, effects on egg yolk total fatty acids and performance traits” (PLoS ONE, 2019)
Read-outs that look alike come from different tables or passages of the source.

Legend:
[1] = Thymol quantification in quail droppings (HS-SPME/GC-MS) during chronic dietary supplementation; type: in vivo, Coturnix japonica; conditions: for concentration at 2 days / concentration at 9 days / concentration at 16 days / concentration at 26 days: female, Japanese quail (Coturnix japonica), droppings, oral, read-out: THY concentration in droppings
Description: A total of 50 eighty-five days-old female quail of homogeneous body weights (251 ± 1 g; Mean ± SE) and in their egg-laying peak were selected from an initial group of 96 female individuals. All birds continued receiving a basal diet between 85 and 100 days of age and all variables (see below for details) were registered along this period (Pre-supplementation period, Fig 1). From 100 to 128 days of age (S period, Fig 1), females were randomly assigned to either a chronic dietary supplementation with one of 3 THY doses (THY2, THY4 and THY6; 10 females each) or to one of 2 control groups (basal diet, BASAL, and basal diet with vehicle solution, VEHICLE; 10 females each). Once finished the S period, half of the quail were slaughtered for histological analysis (n = 25; Slaughter 1, Fig 1) and the other half were subjected to a pS period of 21 days, during which all females received the BASAL diet (pS, Fig 1). After this period, the remaining 25 animals were also slaughtered for histological analysis (Slaughter 2, Fig 1). In this way, we assessed whether THY induced changes in variables indicative of tissue damage and if so, whether the potential damages could reverse after 3 weeks of supplement withdrawal.
To assess changes in egg yolk total FA composition, egg physical characteristics, laying rate, body weight, feed intake and general welfare, during the S and pS periods, five sampling points were defined (Sample points, Fig 1): one initial sample point (at 0 days of S); three sample points during the S period (at 7, 14 and 28 days of S); and one sample point at the end of the pS period (21 days of pS). It should be noted that for determinations of THY concentration, eggs and quail droppings were collected offset from the other variables measured by 2 days, thus were collected on days 2, 9, 16, and 26 days of S, and 17 days of pS, respectively.
Thymol was commercially obtained from Sigma-Aldrich (SAFC®, ⩾99%; FCC, Saint Louis, MO, USA). Supplemented quail were provided 2, 4 or 6.25 g of THY per kg of feed. For this end, THY was prepared in a 2.4, 4.8 and 7.5% w/v ethanolic solution and uniformly sprayed on fresh feed. The feed was prepared and administrated daily, to minimize THY volatilization from feed before its consumption by females. The doses were selected considering two factors. The first, the concentration range for which the transfer of THY to the chicken and/or quail egg has been established. Second, the concentrations of THY supplementation that have shown biological effects. […] In this context, THY4 is and intermediate dose between the last two. Nutrient and FA compositions of the diets supplied were identical between each other and are reported in S1, S2 and S3 Tables, and are in accordance with the National Research Council recommendation.
Egg yolks and droppings of each female were obtained at each sample point (Sample points, Fig 1) and THY concentration was immediately measured by head space-solid phase microextraction followed by gas chromatography-mass spectrometry (HS-SPME/GC-MS) according to Fernandez et al.. SPME was performed with a manual holder with 100 um polydimethylsiloxane (PDMS) fiber. An aliquot of egg yolk (3 g), droppings (5 g) or feed (5 g) was put in a sealed 20 mL glass vial, spiked at the corresponding level with the standard m-cresol (Sigma-Aldrich; ≥ 99% (GC); Saint Louis, MO, USA) stock solution, and vortexed for 5 min. The vials were placed in a water bath and the PDMS fiber was exposed to the headspace for 30 min at 60°C and 5 min at 40°C for egg yolk and droppings or feed, respectively. The fiber was then inserted directly into the GC injector for desorption at 250°C for 10 min in splitless mode. Chromatography analysis was carried out in a Perkin Elmer Clarus 600 equipped with a PSSI injector and a quadrupole MS detector (Perkin Elmer, USA). Turbo Mass 5.4.2 software was used to control and acquire data from GC–MS. […]

[2] = test system: female Japanese quail (Coturnix japonica); test: General welfare quality assessment; type: in vivo; conditions: 2, 4, 6.25 g of THY/kg feed
Protocol: A welfare assessment based on observations of physical characteristics was made. Female skin lesions and plumage status were evaluated following a procedure proposed by Pellegrini et al. that is an adapted version of the protocol developed by the Welfare Quality consortium. Briefly, skin lesions, which include wounds that have not healed in the legs, rear end, chest, cloacae and wings were determined using a score scale from 0 to 2, where "0" represents no lesions or scratches, "1" represents at least one lesion < 0.5 cm diameter or less than 3 pecks (punctiform damage ~ 0.1 cm of diameter) or scratches, and "2" reflects one lesion ≥ 0.5 cm of diameter or more than 3 pecks or scratches. Plumage damage was also determined using a score scale from 0 to 2 as follows: "0" represents individuals with no plumage damage or slight wear (only single feathers lacking), "1" represent individuals with one or more body parts that have moderate wear (i.e. damaged feathers worn or deformed) or one or more featherless areas < 1.5 cm in diameter at the larger extent and "2" corresponded to individuals that have at least one featherless area > 1.5 cm in diameter at the largest extent. […]

[3] = THY2, 2 g of thymol/kg of feed, pS, 17 days of supplement withdrawal
[4] = THY4, 4 g of thymol/kg of feed, pS, 17 days of supplement withdrawal
[5] = THY6, 6.25 g of thymol/kg of feed, pS, 17 days of supplement withdrawal

Percentage of THY transferred to droppings in relation to the amount ingested ([1]; THY2, 2 g of thymol/kg of feed, 2 days of S): 0.53% | Percentage of THY transferred to droppings in relation to the amount ingested ([1]; THY2, 2 g of thymol/kg of feed, 9 days of S): 2.33% | Percentage of THY transferred to droppings in relation to the amount ingested ([1]; THY2, 2 g of thymol/kg of feed, 16 days of S): 2.41% | Percentage of THY transferred to droppings in relation to the amount ingested ([1]; THY2, 2 g of thymol/kg of feed, 26 days of S): 3.47% | Percentage of THY transferred to droppings in relation to the amount ingested [1, 3]: 0.04% | THY concentration in droppings [1, 3]: 4.37 ng/g | Percentage of THY transferred to droppings in relation to the amount ingested ([1]; THY4, 4 g of thymol/kg of feed, 2 days of S): 0.25% | Percentage of THY transferred to droppings in relation to the amount ingested ([1]; THY4, 4 g of thymol/kg of feed, 9 days of S): 1.78% | Percentage of THY transferred to droppings in relation to the amount ingested ([1]; THY4, 4 g of thymol/kg of feed, 16 days of S): 1.91% | Percentage of THY transferred to droppings in relation to the amount ingested ([1]; THY4, 4 g of thymol/kg of feed, 26 days of S): 2.11% | Percentage of THY transferred to droppings in relation to the amount ingested [1, 4]: 0.12% | THY concentration in droppings [1, 4]: 30.58 ng/g | Percentage of THY transferred to droppings in relation to the amount ingested ([1]; THY6, 6.25 g of thymol/kg of feed, 2 days of S): 0.21% | Percentage of THY transferred to droppings in relation to the amount ingested ([1]; THY6, 6.25 g of thymol/kg of feed, 9 days of S): 1.33% | Percentage of THY transferred to droppings in relation to the amount ingested ([1]; THY6, 6.25 g of thymol/kg of feed, 16 days of S): 1.74% | Percentage of THY transferred to droppings in relation to the amount ingested ([1]; THY6, 6.25 g of thymol/kg of feed, 26 days of S): 1.57% | Percentage of THY transferred to droppings in relation to the amount ingested [1, 5]: 0.09% | THY concentration in droppings [1, 5]: 37.95 ng/g | THY transferred to the droppings, of the amount THY ingested ([1]; during the plateau, across THY2, THY4, THY6): 1.57–3.47% | concentration at 2 days ([1]; 2 g/kg of feed, THY2, 2 g of thymol/kg of feed, 2 days of S): 51.8 ng/g | concentration at 9 days ([1]; 2 g/kg of feed, THY2, 2 g of thymol/kg of feed, 9 days of S): 229 ng/g | concentration at 16 days ([1]; 2 g/kg of feed, THY2, 2 g of thymol/kg of feed, 16 days of S): 237 ng/g | concentration at 26 days ([1]; 2 g/kg of feed, THY2, 2 g of thymol/kg of feed, 26 days of S): 342 ng/g | concentration at 2 days ([1]; 4 g/kg of feed, THY4, 4 g of thymol/kg of feed, 2 days of S): 63.5 ng/g | concentration at 9 days ([1]; 4 g/kg of feed, THY4, 4 g of thymol/kg of feed, 9 days of S): 459 ng/g | concentration at 16 days ([1]; 4 g/kg of feed, THY4, 4 g of thymol/kg of feed, 16 days of S): 491 ng/g | concentration at 26 days ([1]; 4 g/kg of feed, THY4, 4 g of thymol/kg of feed, 26 days of S): 542 ng/g | concentration at 2 days ([1]; 6.25 g/kg of feed, THY6, 6.25 g of thymol/kg of feed, 2 days of S): 85 ng/g | concentration at 9 days ([1]; 6.25 g/kg of feed, THY6, 6.25 g of thymol/kg of feed, 9 days of S): 550 ng/g | concentration at 16 days ([1]; 6.25 g/kg of feed, THY6, 6.25 g of thymol/kg of feed, 16 days of S): 721 ng/g | concentration at 26 days ([1]; 6.25 g/kg of feed, THY6, 6.25 g of thymol/kg of feed, 26 days of S): 650 ng/g | effect on general well-being [2]: did not affect
SMILES: Cc1ccc(C(C)C)c(O)c1 [THY, 2 isopropyl-5-methylphenol]
